Measurements: publication PMC9519552, “Activation of the human insulin receptor by non-insulin-related peptides” (Nature Communications, 2022)
Like-named read-outs stand apart in the source and are kept apart here. Positions of bridges follow the written chain, without caps; N, C: chain ends. Residues, ends and D or L forms follow the SMILES beside them.

Key:
[1] = target: T1, human holoIR-A over-expressed in HEK293 cells (Homo sapiens, UniProt P06213); assay: Inhibition of hIR phosphorylation by peptides, co-incubated with BHI at its EC50 (ELISA); type: cell-based; details: for hIRA Phosph IC50 Run 1 / hIRA Phosph IC50 Run 2 / hIRA Phosph IC50 Run 3: inhibition of insulin-stimulated phosphorylation; for hIRA Phosph IC50 Run 1: BHI at its EC50, run 1; for hIRA Phosph IC50 Run 2: BHI at its EC50, run 2; for hIRA Phosph IC50 Run 3: BHI at its EC50, run 3; for IC50: read-out: hIRA Phosph IC50 Mean
T1 construct: expressed in transfected cells; host or cells: HEK293, stably transfected
T1 sequence (P06213 28-1370 isoform P06213-2 limits assumed): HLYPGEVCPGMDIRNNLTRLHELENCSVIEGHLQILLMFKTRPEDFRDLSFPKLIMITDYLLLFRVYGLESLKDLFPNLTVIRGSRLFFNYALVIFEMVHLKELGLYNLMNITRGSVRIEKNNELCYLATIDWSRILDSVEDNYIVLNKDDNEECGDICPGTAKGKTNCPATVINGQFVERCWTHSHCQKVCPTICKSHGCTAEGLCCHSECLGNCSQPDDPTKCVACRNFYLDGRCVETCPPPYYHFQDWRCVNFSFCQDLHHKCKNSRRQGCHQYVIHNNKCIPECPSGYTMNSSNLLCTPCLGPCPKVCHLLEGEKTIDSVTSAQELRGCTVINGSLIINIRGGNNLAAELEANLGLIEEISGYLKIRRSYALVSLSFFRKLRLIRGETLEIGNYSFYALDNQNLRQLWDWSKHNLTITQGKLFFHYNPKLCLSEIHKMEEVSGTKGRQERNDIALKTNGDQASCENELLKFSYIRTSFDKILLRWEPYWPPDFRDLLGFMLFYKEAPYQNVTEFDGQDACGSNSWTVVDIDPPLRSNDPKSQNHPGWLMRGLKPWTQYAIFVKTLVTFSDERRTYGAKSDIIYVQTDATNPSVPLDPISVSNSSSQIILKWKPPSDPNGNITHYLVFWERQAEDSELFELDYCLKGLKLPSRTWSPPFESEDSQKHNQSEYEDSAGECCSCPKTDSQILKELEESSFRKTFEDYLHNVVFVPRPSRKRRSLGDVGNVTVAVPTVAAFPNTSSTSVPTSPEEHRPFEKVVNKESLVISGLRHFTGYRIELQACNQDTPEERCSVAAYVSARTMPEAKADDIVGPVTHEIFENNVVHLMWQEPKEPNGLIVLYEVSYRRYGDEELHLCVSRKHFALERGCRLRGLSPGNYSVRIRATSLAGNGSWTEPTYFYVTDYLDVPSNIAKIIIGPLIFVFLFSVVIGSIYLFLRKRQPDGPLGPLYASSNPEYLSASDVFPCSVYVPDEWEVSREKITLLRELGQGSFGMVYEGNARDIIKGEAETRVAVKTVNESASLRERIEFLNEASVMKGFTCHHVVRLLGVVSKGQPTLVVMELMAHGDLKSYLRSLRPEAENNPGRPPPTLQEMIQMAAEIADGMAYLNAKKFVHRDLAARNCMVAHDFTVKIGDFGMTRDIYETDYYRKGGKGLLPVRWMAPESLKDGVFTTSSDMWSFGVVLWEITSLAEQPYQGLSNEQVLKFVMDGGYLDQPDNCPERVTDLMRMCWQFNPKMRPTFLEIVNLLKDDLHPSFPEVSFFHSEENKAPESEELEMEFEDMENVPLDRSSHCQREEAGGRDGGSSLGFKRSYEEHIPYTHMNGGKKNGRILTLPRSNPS
T1 sequence (P06213 763-1382 partner limits assumed): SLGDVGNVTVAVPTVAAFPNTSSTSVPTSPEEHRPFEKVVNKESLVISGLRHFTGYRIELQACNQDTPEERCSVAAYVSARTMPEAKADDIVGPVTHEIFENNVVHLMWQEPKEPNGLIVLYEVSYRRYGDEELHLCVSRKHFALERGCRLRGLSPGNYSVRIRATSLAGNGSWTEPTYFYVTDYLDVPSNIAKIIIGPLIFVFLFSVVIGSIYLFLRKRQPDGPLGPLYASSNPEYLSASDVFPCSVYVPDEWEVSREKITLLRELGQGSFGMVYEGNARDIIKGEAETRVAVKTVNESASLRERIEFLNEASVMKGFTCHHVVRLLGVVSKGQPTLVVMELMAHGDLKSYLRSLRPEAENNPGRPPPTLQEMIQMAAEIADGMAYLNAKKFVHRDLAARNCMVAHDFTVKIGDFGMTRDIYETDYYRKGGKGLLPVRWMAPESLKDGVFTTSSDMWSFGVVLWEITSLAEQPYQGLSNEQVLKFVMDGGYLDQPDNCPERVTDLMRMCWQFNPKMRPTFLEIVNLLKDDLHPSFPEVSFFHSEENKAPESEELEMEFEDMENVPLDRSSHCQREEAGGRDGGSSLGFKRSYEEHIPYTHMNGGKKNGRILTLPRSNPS
Method: Phosphorylation was quantified using an ELISA technique. Ninety-six well, flat-bottom microplates (Greiner Bio-One) were pre-coated with 2 µg mL^−1 anti-C9 monoclonal antibody (Rho 1D4; University of British Columbia)[27] in 20 mM sodium carbonate, pH 9.6, at 4 °C for overnight prior to the assay. On the assay day, plates were washed 3× with 0.1% Tween in 50 mM Tris Buffer Saline, pH 7.5 (TBST), and then blocked for greater than 1 h at room temperature (RT) with 1% BSA (Sigma) in TBST.
Stably transfected HEK293 cells over-expressing human holoIR-A containing a C-terminal C9 epitope tag ([…]), were plated at 6 × 10^4 cells per well serum-starved using 0.1% BSA in DMEM (Gibco) for overnight at standard tissue culture condition. […] After a 15-min incubation in lysis buffer at 4 °C, the lysate was transferred to anti-C9 antibody coated capture plate (Rho 1D4; University of British Columbia)[27]. […] After a 1 h incubation at room temperature, the secondary antibody was removed by washing 3× with TBST. Signal detection occurred with the addition of TMB, an HRP substrate (Pierce). After 5–10 min, the reaction was stopped by adding an equal volume of 2 M H2SO4, and the absorbance readings at 450 nm (A450) were recorded using a Envision plate reader (PerkinElmer). Samples were tested in three independent assay runs on three different days.
Percent specific response (y-axis) was plotted versus the log concentration of compound (x-axis) using Prism Version 9.3.1 (GraphPad Software). Individual measurements are provided as Source Data.

[2] = target: T2, human IR-A (holoIR-A) (Homo sapiens, UniProt P06213); assay: holoIR-A competitive radioligand binding assay (scintillation proximity assay); details: for Ki: IM172N22(-) mutant peptide set
T2 construct: expressed in transfected cells; host or cells: HEK293 (ATCC #CRL-1573), stably transfected; membrane preparation
T2 sequence (P06213 28-1370 isoform P06213-2 limits assumed): as the sequence (P06213 28-1370 isoform P06213-2 limits assumed) above
T2 sequence (P06213 763-1382 partner limits assumed): as the sequence (P06213 763-1382 partner limits assumed) above
Method: Cellular membranes were prepared from human embryonic kidney (HEK293; ATCC #CRL-1573) cells stably transfected with cDNA corresponding to human IR-A (holoIR-A) plus a C-terminal C9 tag ([…]) inserted within a pcDNA3.1 plasmid (Invitrogen), with positive clones selected with 800 μg mL^−1 neomycin and confirmed by Western Blot. Frozen cell pellets were thawed in ice-cold homogenization/resuspension buffer (50 mM Tris-HCl, pH 7.5) containing one cOmplete® protease inhibitor tablet with EDTA (Roche Diagnostics) per 50 mL buffer. Cells were homogenized with an overhead motor-driven Teflon-glass homogenizer using 15–20 strokes, followed by centrifugation at 1100 × g for 10 min at 4 °C. The supernatant was saved on ice, pellets were homogenized as before, and centrifuged at 1100 × g for 10 min at 4 °C. Both supernatants were combined and subsequently centrifuged at 35,000 × g for 60 min at 4 °C. The pellet was resuspended in buffer (4 to 5 mL g^−1 of starting cell paste) containing protease inhibitors and quick frozen in liquid nitrogen prior to storage at −80 °C. Protein concentration was determined using a BCA kit (Thermo Scientific) with bovine serum albumin (BSA) as standard.
The assays were performed with a scintillation proximity assay (SPA) method using polyvinyltoluene (PVT) wheat germ agglutinin-coupled SPA beads (Perkin Elmer). Assay buffer containing 50 mM Tris-HCl (pH 7.5), 150 mM NaCl, 0.1% w/v fatty-acid free BSA was used for all compound testing and reagent preparation. Ten-point concentration response curves with three-fold serial dilutions of test samples or controls were prepared in the assay buffer. […] Plates were sealed and shaken for 1 min on a plate shaker. Following a 10-h incubation and bead settling period at room temperature, radioactivity was determined using a MicroBeta Trilux scintillation counter (Perkin Elmer) and expressed as counts per minute (CPM). […] Samples were tested in three independent assay runs on three different days.
All test sample concentration responses were normalized to the control response and calculated as a percent of the maximal response after correcting for nonspecific binding as shown below: %Specific Inhibition=100%−[(CPM−MIN)/(MAX−MIN)×100%]
Percent specific binding (y-axis) was plotted vs log concentration of compound (x-axis) using Prism Version 9.3.1 (GraphPad Software). Individual measurements are provided as Source Data.

[3] = mean of 3 runs, read-out: hIRA Binding Ki Mean
[4] = run 1, read-out: hIRA Binding Ki Run 1
[5] = run 2, read-out: hIRA Binding Ki Run 2
[6] = run 3, read-out: hIRA Binding Ki Run 3

| SMILES | hIRA Phosph IC50 Run 1 [1] | hIRA Phosph IC50 Run 2 [1] | hIRA Phosph IC50 Run 3 [1] | IC50 [1] | Ki [2, 3] | Ki [2, 4] | Ki [2, 5] | Ki [2, 6] | reduction in ki for hIR-A on substitution ([2]; relative to control peptide IM172N22 devoid of N-terminal phenylacetylation) | binding of the mutant peptide to hIR-A (in words) ([2]; alanine substitution in IM172N22(-)) |
| --- | --- | --- | --- | --- | --- | --- | --- | --- | --- | --- |
| CC[C@H](C)[C@H](NC(=O)[C@H](CCC(N)=O)NC(=O)[C@H](C)NC(=O)[C@H](Cc1c[nH]c2ccccc12)NC(=O)[C@H](CCC(=O)O)NC(=O)[C@H](CCCNC(=N)N)NC(=O)[C@H](CCC(=O)O)NC(=O)[C@H](CC(C)C)NC(=O)[C@H](CO)NC(C)=O)C(=O)N[C@@H](CCC(=O)O)C(=O)N[C@H]1CSSC[C@@H](C(=O)N2CCC[C@H]2C(=O)N2CCC[C@H]2C(=O)N[C@@H](CO)C(=O)N[C@@H](CCC(=O)O)C(=O)N[C@@H](CO)C(N)=O)NC(=O)[C@H](CCCNC(=N)N)NC(=O)CNC(=O)[C@H](Cc2ccc(O)cc2)NC(=O)[C@H](C(C)C)NC(=O)[C@H](CCC(=O)O)NC1=O [Peptide E4R] (Ac-SLEREWAQIECEVYGRCPPSES-NH2; disulfide 11-17) | 367 nM | 259 nM | 348 nM | 325 nM | 38 nM | 42.4 nM | 35.7 nM | 35.9 nM |  |  |
| CC[C@H](C)[C@H](NC(=O)[C@H](CCC(N)=O)NC(=O)[C@H](C)NC(=O)[C@H](C)NC(=O)[C@H](CCC(=O)O)NC(=O)[C@H](CCC(=O)O)NC(=O)[C@H](CCC(=O)O)NC(=O)[C@H](CC(C)C)NC(=O)[C@H](CO)NC(C)=O)C(=O)N[C@@H](CCC(=O)O)C(=O)N[C@H]1CSSC[C@@H](C(=O)N2CCC[C@H]2C(=O)N2CCC[C@H]2C(=O)N[C@@H](CO)C(=O)N[C@@H](CCC(=O)O)C(=O)N[C@@H](CO)C(N)=O)NC(=O)[C@H](CCCNC(=N)N)NC(=O)CNC(=O)[C@H](Cc2ccc(O)cc2)NC(=O)[C@H](C(C)C)NC(=O)[C@H](CCC(=O)O)NC1=O [Peptide W6A] (Ac-SLEEEAAQIECEVYGRCPPSES-NH2; disulfide 11-17) | >10000 nM | >10000 nM | >10000 nM | > 10000 nM | > 4240 nM | > 1210 nM | > 4160 nM | > 4240 nM |  | no detectable binding |
| CC[C@H](C)[C@H](NC(=O)[C@H](CCC(N)=O)NC(=O)[C@H](C)NC(=O)[C@H](Cc1c[nH]c2ccccc12)NC(=O)[C@H](CCC(=O)O)NC(=O)[C@H](CCC(=O)O)NC(=O)[C@H](CCCNC(=N)N)NC(=O)[C@H](CC(C)C)NC(=O)[C@H](CO)NC(C)=O)C(=O)N[C@@H](CCC(=O)O)C(=O)N[C@H]1CSSC[C@@H](C(=O)N2CCC[C@H]2C(=O)N2CCC[C@H]2C(=O)N[C@@H](CO)C(=O)N[C@@H](CCC(=O)O)C(=O)N[C@@H](CO)C(N)=O)NC(=O)[C@H](CCCNC(=N)N)NC(=O)CNC(=O)[C@H](Cc2ccc(O)cc2)NC(=O)[C@H](C(C)C)NC(=O)[C@H](CCC(=O)O)NC1=O [Peptide E3R] (Ac-SLREEWAQIECEVYGRCPPSES-NH2; disulfide 11-17) | >10000 nM | >10000 nM | >10000 nM | > 10000 nM | > 4240 nM | > 1210 nM | > 4160 nM | > 4240 nM |  |  |
| CC[C@H](C)[C@H](NC(=O)[C@H](CCC(N)=O)NC(=O)[C@H](C)NC(=O)[C@H](Cc1c[nH]c2ccccc12)NC(=O)[C@H](CCC(=O)O)NC(=O)[C@H](CCC(=O)O)NC(=O)[C@H](CCC(=O)O)NC(=O)[C@H](CC(C)C)NC(=O)[C@H](CO)NC(C)=O)C(=O)N[C@@H](CCC(=O)O)C(=O)N[C@H]1CSSC[C@@H](C(=O)N2CCC[C@H]2C(=O)N2CCC[C@H]2C(=O)N[C@@H](CO)C(=O)N[C@@H](CCC(=O)O)C(=O)N[C@@H](CO)C(N)=O)NC(=O)[C@H](CCCNC(=N)N)NC(=O)CNC(=O)[C@H](Cc2ccc(O)cc2)NC(=O)[C@H](C)NC(=O)[C@H](CCC(=O)O)NC1=O [Peptide V13A] (Ac-SLEEEWAQIECEAYGRCPPSES-NH2; disulfide 11-17) | 2321 nM | 2401 nM | 2832 nM | 2520 nM | 215 nM | 203 nM | 265 nM | 177 nM |  |  |

Further molecules by falling IC50 [1], results first:

| hIRA Phosph IC50 Run 1 [1] | hIRA Phosph IC50 Run 2 [1] | hIRA Phosph IC50 Run 3 [1] | IC50 [1] | Ki [2, 3] | Ki [2, 4] | Ki [2, 5] | Ki [2, 6] | reduction in ki for hIR-A on substitution ([2]; relative to control peptide IM172N22 devoid of N-terminal phenylacetylation) | binding of the mutant peptide to hIR-A (in words) ([2]; alanine substitution in IM172N22(-)) | SMILES |
| --- | --- | --- | --- | --- | --- | --- | --- | --- | --- | --- |
| 1117 nM | 1161 nM | 1465 nM | 1250 nM | 167 nM | 145 nM | 184 nM | 172 nM |  |  | CC[C@H](C)[C@H](NC(=O)[C@H](CCC(N)=O)NC(=O)[C@H](C)NC(=O)[C@H](Cc1c[nH]c2ccccc12)NC(=O)[C@H](CCC(=O)O)NC(=O)[C@H](CCC(=O)O)NC(=O)[C@H](CCC(=O)O)NC(=O)[C@H](CC(C)C)NC(=O)[C@H](CO)NC(C)=O)C(=O)N[C@@H](CCC(=O)O)C(=O)N[C@H]1CSSC[C@@H](C(=O)N2CCC[C@H]2C(=O)N2CCC[C@H]2C(=O)N[C@@H](CO)C(=O)N[C@@H](CCC(=O)O)C(=O)N[C@@H](CO)C(N)=O)NC(=O)[C@H](CCC(=O)O)NC(=O)CNC(=O)[C@H](Cc2ccc(O)cc2)NC(=O)[C@H](C(C)C)NC(=O)[C@H](CCC(=O)O)NC1=O [Peptide R16E] (Ac-SLEEEWAQIECEVYGECPPSES-NH2; disulfide 11-17) |
| 78 nM | 103 nM | 88 nM | 89.8 nM | 16.2 nM | 14.6 nM | 16.1 nM | 17.8 nM | lower than 5 fold |  | CC[C@H](C)[C@H](NC(=O)[C@H](CCC(N)=O)NC(=O)[C@H](C)NC(=O)[C@H](Cc1c[nH]c2ccccc12)NC(=O)[C@H](CCC(=O)O)NC(=O)[C@H](CCC(=O)O)NC(=O)[C@H](CCC(=O)O)NC(=O)[C@H](CC(C)C)NC(=O)[C@H](CO)NC(C)=O)C(=O)N[C@@H](CCC(=O)O)C(=O)N[C@H]1CSSC[C@@H](C(=O)N2CCC[C@H]2C(=O)N2CCC[C@H]2C(=O)N[C@@H](CO)C(=O)N[C@@H](CCC(=O)O)C(=O)N[C@@H](C)C(N)=O)NC(=O)[C@H](CCCNC(=N)N)NC(=O)CNC(=O)[C@H](Cc2ccc(O)cc2)NC(=O)[C@H](C(C)C)NC(=O)[C@H](CCC(=O)O)NC1=O [Peptide S22A] (Ac-SLEEEWAQIECEVYGRCPPSEA-NH2; disulfide 11-17) |
